From paper PMC10762035, “Molecular basis of human trace amine-associated receptor 1 activation” (Nature Communications, 2024)
Positions count from the first letter of the chain named. Where “and” joins values, the source holds several entries; their conditions need not be identical. Equal entries are not always repeated. Where two headings read alike, the source gives them in different places.

Tests used:
hTA1 T194A = biological target: T1, hTA1 T194A (Homo sapiens, UniProt Q96RJ0, T194A); experiment: GloSensor cAMP accumulation assay, T194A mutant
T1 sequence (Q96RJ0 1-339 T194A): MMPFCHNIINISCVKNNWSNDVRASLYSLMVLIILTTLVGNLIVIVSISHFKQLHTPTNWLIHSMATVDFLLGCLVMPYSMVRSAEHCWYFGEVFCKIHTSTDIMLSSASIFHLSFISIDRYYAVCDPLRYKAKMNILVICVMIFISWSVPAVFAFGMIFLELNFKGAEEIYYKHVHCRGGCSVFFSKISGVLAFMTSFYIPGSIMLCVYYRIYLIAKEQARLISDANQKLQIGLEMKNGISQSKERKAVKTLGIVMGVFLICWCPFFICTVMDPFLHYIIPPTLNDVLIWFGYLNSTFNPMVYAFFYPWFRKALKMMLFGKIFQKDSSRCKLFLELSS

hTA1 C88/178S = biological target: T2, hTA1 C88/178S (Homo sapiens, UniProt Q96RJ0, C178S/C88S); experiment: GloSensor cAMP accumulation assay, C88S/C178S double mutant; format: cell-based
T2 construct: expressed in transfected cells; host or cells: HEK293T
T2 sequence (Q96RJ0 1-339 C88S/C178S): T1 sequence (Q96RJ0 1-339 T194A) with C88S, C178S, A194T

hTA1 I290N = biological target: T3, hTA1 I290N (Homo sapiens, UniProt Q96RJ0, I290N); experiment: GloSensor cAMP accumulation assay, I290N mutant; format: cell-based;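 note: cells transiently co-expressing hTA1 and the GloSensor cAMP biosensor, luminescence read 30 min after compound addition at room temperature, efficacy scaled to the maximal β-PEA response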
T3 construct: expressed in transfected cells; host or cells: HEK293T
T3 sequence (Q96RJ0 1-339 I290N): T1 sequence (Q96RJ0 1-339 T194A) with A194T, I290N

hTA1 = biological target: T4, hTA1 (Homo sapiens, UniProt Q96RJ0); experiment: GloSensor cAMP accumulation assay, concentration response, wild-type hTA1 in transfected HEK293T cells; format: cell-based; conditions: for Emax: HEK-293T; for Dose-response curves for asenapine vs endogenous trace amines / Normalized Luminescence Counts for WT hTA1: log[Compound]; for Dose-response curves for asenapine vs endogenous trace amines: replicate values (N=2); for Normalized Luminescence Counts for WT hTA1: replicate wells;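 for all read-outs here: luminescence read after 30 min compound exposure at room temperature in cells preloaded with D-Luciferin, reflecting Gs-driven cAMP rise, efficacy scaled to the maximal β-PEA response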
T4 construct: expressed in transfected cells; host or cells: HEK293T
T4 sequence (Q96RJ0 1-339): T1 sequence (Q96RJ0 1-339 T194A) with A194T

hTA1 F195T = biological target: T5, hTA1 F195T (Homo sapiens, UniProt Q96RJ0, F195T); experiment: GloSensor cAMP accumulation assay, F195T mutant; format: cell-based; conditions: F195T;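 note: cells transiently co-expressing HA-FLAG-tagged hTA1 and the GloSensor cAMP biosensor, luminescence read 30 min after agonist addition at room temperature, concentration-response fitted by nonlinear regression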
T5 construct: expressed in transfected cells; host or cells: HEK293T
T5 sequence (Q96RJ0 1-339 F195T): T1 sequence (Q96RJ0 1-339 T194A) with A194T, F195T

EC50 (hTA1 T194A; EC50, T194A): 540 nM | Emax values of Asenapine (hTA1 T194A; T194A, Mean of one experiment): 80.8072 | ΔEmax values (each mutant value - WT average), T194A, Mean (hTA1 T194A; hTA1 T194A mutant vs WT average, Figure 6B, each line is one experiment (3 replicates)): 2.977 and -7.9001 | EC50 (hTA1 T194A; pEC50 values of Asenapine, T194A, Mean of one experiment): 383 nM and 477 nM | EC50 (hTA1 T194A; pEC50 ± SEM, T194A): 457 nM | Emax (hTA1 T194A; read-out: Emax values of Asenapine, T194A, Mean of one experiment): 91.7% | Emax (hTA1 T194A; read-out: Span ± SEM (Emax normalized to β-PEA), T194A): 120% | EC50 (hTA1 C88/178S; C88/178S, n=2, read-out: EC50): 205 nM | Emax (hTA1 C88/178S; read-out: Span ± SEM (Emax normalized to β-PEA)): 86.3 ± 8.4% | reduction in potency vs wild type (hTA1 I290N; I290N): 4 fold | Emax values of Asenapine (hTA1 I290N; I290N, Mean of one experiment): 77.7708 | Emax (hTA1 I290N; I290N, Mean of one experiment, read-out: Emax values of Asenapine): 90.3% | EC50 (hTA1 I290N; I290N, Mean of one experiment, read-out: pEC50 values of Asenapine (converted)): 1390 nM and 721 nM | EC50 (hTA1 I290N; I290N, n=2, read-out: EC50): 1000 nM | Emax (hTA1 I290N; I290N, n=2, read-out: Span ± SEM (Emax normalized to β-PEA)): 84 ± 6.25% | EC50 (hTA1 I290N; I290N, n=2, read-out: pEC50 ± SEM (converted)): 1000 nM | Emax (hTA1 I290N; I290N, relative to β-PEA, read-out: Emax): 84% | ΔEmax values (each mutant value - WT average), I290N, Mean (hTA1 I290N; hTA1 I290N mutant vs WT average, Figure 6B, each line is one experiment (3 replicates)): 1.57 and -10.9365 | Emax (hTA1; WT, Avg of the experiment means, read-out: Emax values, Avg): 88.7% | Emax (hTA1; WT, Mean of one experiment (3 replicates), read-out: Emax values): 91% | Emax (hTA1; wt hTA1, relative to β-PEA, read-out: Emax): 88.7% | Emax values, Avg (hTA1; WT, Asenapine, average of the two experiments): 88.71 | Emax values, Mean (hTA1; WT, Asenapine, mean of one experiment, 3 replicates): 91.0389 and 86.3756 | Emax values (hTA1; WT, Mean of one experiment (3 replicates)): 86.3756 | EC50 (hTA1; WT, Mean of one experiment (3 replicates), read-out: pEC50 values (converted)): 279 nM | EC50 (hTA1; wt hTA1, HEK293T, n=3, read-out: EC50): 274 nM | increase in potency vs wild type (hTA1 F195T): 3 fold | ΔpEC50 values (each mutant value - WT average), Mean (hTA1 F195T; Asenapine): -0.004135 and 0.1049 | Emax values, Mean (hTA1 F195T; Asenapine, per experiment, 3 replicates): 90.8432 and 72.9114 | EC50 (hTA1 F195T; Asenapine, per experiment, 3 replicates, read-out: pEC50 values Mean (converted)): 87.4 nM and 68 nM | EC50 (hTA1 F195T; n=2, read-out: EC50): 77.1 nM | Emax (hTA1 F195T; n=2, read-out: Span ± SEM (Emax normalized to β-PEA)): 81.9 ± 8.97%
Structure (SMILES): CN1CC2c3ccccc3Oc3ccc(Cl)cc3C2C1 (stereo not shown) [asenapine]
Dose-response curves for asenapine vs endogenous trace amines (hTA1; M = -5): 79.6771 and 96.2124 and 92.251 and 83.6538 and 87.8328 and 80.7895 | Normalized Luminescence Counts for WT hTA1 (hTA1; M = -5): 83.6538 and 87.8328 and 80.7895 and 79.6771 and 96.2124 and 92.251 | Dose-response curves for asenapine vs endogenous trace amines (hTA1; M = -5.522): 74.87 and 93.5418 and 84.1725 and 79.0052 and 76.9861 and 71.9618 | Normalized Luminescence Counts for WT hTA1 (hTA1; M = -5.522): 79.0052 and 76.9861 and 71.9618 and 74.87 and 93.5418 and 84.1725 | Dose-response curves for asenapine vs endogenous trace amines (hTA1; M = -6): 68.5274 and 68.3939 and 69.9517 and 72.9948 and 71.8209 and 62.9463 | Normalized Luminescence Counts for WT hTA1 (hTA1; M = -6): 72.9948 and 71.8209 and 62.9463 and 68.5274 and 68.3939 and 69.9517 | Dose-response curves for asenapine vs endogenous trace amines (hTA1; M = -6.522): 47.5189 and 49.5663 and 40.1525 and 38.2946 and 48.7657 and 45.4788 | Normalized Luminescence Counts for WT hTA1 (hTA1; M = -6.522): 38.2946 and 48.7657 and 45.4788 and 47.5189 and 49.5663 and 40.1525 | Dose-response curves for asenapine vs endogenous trace amines (hTA1; M = -7): 27.8234 and 34.8114 and 20.9244 and 18.9489 and 23.9262 and 21.7193 | Normalized Luminescence Counts for WT hTA1 (hTA1; M = -7): 18.9489 and 23.9262 and 21.7193 and 27.8234 and 34.8114 and 20.9244 | Dose-response curves for asenapine vs endogenous trace amines (hTA1; M = -7.522): 9.085 and 11.3326 and 6.214 and 4.299 and 6.271 and 7.5856 | Normalized Luminescence Counts for WT hTA1 (hTA1; M = -7.522): 4.299 and 6.271 and 7.5856 and 9.085 and 11.3326 and 6.214 | Dose-response curves for asenapine vs endogenous trace amines (hTA1; M = -8): 5.413 and 6.147 and 6.2585 and 3.876 and 4.862 and 2.139 | Normalized Luminescence Counts for WT hTA1 (hTA1; M = -8): 3.876 and 4.862 and 2.139 and 5.413 and 6.147 and 6.2585 | Dose-response curves for asenapine vs endogenous trace amines (hTA1; M = -8.522): 0.6725 and 1.273 and 1.229 and 1.059 and 0.777 and -0.209 | Normalized Luminescence Counts for WT hTA1 (hTA1; M = -8.522): 1.059 and 0.777 and -0.209 and 0.6725 and 1.273 and 1.229 | Dose-response curves for asenapine vs endogenous trace amines (hTA1; M = -9): -0.2399 and 0.5835 and -0.9298 and -0.4438 and -0.06817 and 0.0727 | Normalized Luminescence Counts for WT hTA1 (hTA1; M = -9): -0.4438 and -0.06817 and 0.0727 and -0.2399 and 0.5835 and -0.9298 | Dose-response curves for asenapine vs endogenous trace amines (hTA1; M = -9.522): -1.597 and -0.5292 and -1.353 and -0.209 and -0.5377 and 0.777 | Normalized Luminescence Counts for WT hTA1 (hTA1; M = -9.522): -0.209 and -0.5377 and 0.777 and -1.597 and -0.5292 and -1.353 | Dose-response curves for asenapine vs endogenous trace amines (hTA1; M = -10): -0.6182 and -0.1064 and -0.8408 and -0.7725 and -0.5377 and -0.6786 | Normalized Luminescence Counts for WT hTA1 (hTA1; M = -10): -0.7725 and -0.5377 and -0.6786 and -0.6182 and -0.1064 and -0.8408 | Dose-response curves for asenapine vs endogenous trace amines (hTA1; M = -10.522): -0.9521 and -0.1509 and -1.197 and -0.8195 and -1.665 and -1.101 | Normalized Luminescence Counts for WT hTA1 (hTA1; M = -10.522): -0.8195 and -1.665 and -1.101 and -0.9521 and -0.1509 and -1.197 | Dose-response curves for asenapine vs endogenous trace amines (hTA1; M = -11): -0.9075 and -0.3289 and -0.7295 and -0.3969 and 0.2136 and 0.9649 | Normalized Luminescence Counts for WT hTA1 (hTA1; M = -11): -0.3969 and 0.2136 and 0.9649 and -0.9075 and -0.3289 and -0.7295 | Dose-response curves for asenapine vs endogenous trace amines (hTA1; M = -11.522): -0.863 and -0.01735 and -1.531 and -0.9603 and -0.5377 and -0.4908 | Normalized Luminescence Counts for WT hTA1 (hTA1; M = -11.522): -0.9603 and -0.5377 and -0.4908 and -0.863 and -0.01735 and -1.531 | Dose-response curves for asenapine vs endogenous trace amines (hTA1; M = -12): -1.108 and -0.6405 and -1.286 and -1.101 and -0.6786 and -1.477 | Normalized Luminescence Counts for WT hTA1 (hTA1; M = -12): -1.101 and -0.6786 and -1.477 and -1.108 and -0.6405 and -1.286 | Dose-response curves for asenapine vs endogenous trace amines (hTA1; M = -12.522): -1.575 and -1.241 and -2.02 and -0.5377 and -1.054 and -1.242 | Normalized Luminescence Counts for WT hTA1 (hTA1; M = -12.522): -0.5377 and -1.054 and -1.242 and -1.575 and -1.241 and -2.02
